In patent US5252559A, “His-Gly-Gly peptide and derivatives thereof for hair growth” (The Procter & Gamble Company, priority 1991, dated 1993):
Peptide text beside a SMILES is read from it.

System: male C3H mice
Test: C3H Mouse Model, topical study of hair growth
Assay type: in vivo
Experimental: The effect of the compounds of the present invention on hair growth is assessed using male C3H mice (Harlan Sprague Dawley, Inc., Indianapolis, Ind.) as an animal model. The mice are 52 days old at the time of first does. They are individually housed in "shoe box" cages (Scientific Products, Chicago, Ill.). Ten mice are used per test group.
Not more than four hours before treatment, the animals are anesthetized with an intraperitoneal mixture of acepromazine maleate (1.6 mg/kg), xylazine (4.8 mg/kg) and ketamine hydrochloride (64 mg/kg) dosed in a saline vehicle in a total volume of 0.2 ml per 25 g mouse. The entire back of the animal is clipped closely with a small animal clipper (Wahl model 8900, Wahl Clipper Corp., Sterling, Ill.). […]
On days of photography, the animals are photographed prior to dosing. […] Results are expressed as the percent of shaved area responding with anagen skin, and the percent of shaved area responding with hair growth.
A positive response, i.e., an increase of greater than 10% over control, indicates the potential of the test compound to regulate hair growth. Accordingly, when hair growth peptides as herein defined, are assessed either individually or in combination as a test compound in the C3H Mouse Model, an increase over control of at least 10%, preferably 40%, more preferably 70%, after four weeks treatment will be obtained. […]

## N[C@@H](Cc1c[nH]cn1)C(=O)NCC(=O)NCC(=O)O [His-Gly-Gly, Histidyl-glycyl-glycine] (H-His-Gly-Gly-OH)
topical, 1.0% in Tris buffer/propylene glycol/glycerine (67/30/3, pH 8.0) vehicle, after 4 weeks of treatment, mean of 10 mice
  mean percent of shaved area that is covered with hair at Day 25: 44.3%
Versus vehicle control, Day 25, topical 1.0%
  increase in hair growth: 96%
